Patent US20100286220A1, “HNF4alpha ANTAGONISTS AND METHODS OF USE” (Burnham Institute for Medical Research, priority 2009, published 2010)
“Also recorded” adds a separate entry of the source.

Columns and labels:
[1] = test system: endogenous insulin message; experiment: Secondary confirmatory assay, endogenous insulin message in T6PNE cells; type: cell-based, human
human PPARγ = target: T1, human PPARγ (Homo sapiens, UniProt P37231); experiment: PPAR response element (PPRE)-luciferase reporter assay in HeLa cells; type: cell-based; conditions: PPRE reporter plasmid with or without human PPARγ expression vector
T1 construct: expressed in transfected cells; host or cells: HeLa cells
T1 sequence (P37231 1-505): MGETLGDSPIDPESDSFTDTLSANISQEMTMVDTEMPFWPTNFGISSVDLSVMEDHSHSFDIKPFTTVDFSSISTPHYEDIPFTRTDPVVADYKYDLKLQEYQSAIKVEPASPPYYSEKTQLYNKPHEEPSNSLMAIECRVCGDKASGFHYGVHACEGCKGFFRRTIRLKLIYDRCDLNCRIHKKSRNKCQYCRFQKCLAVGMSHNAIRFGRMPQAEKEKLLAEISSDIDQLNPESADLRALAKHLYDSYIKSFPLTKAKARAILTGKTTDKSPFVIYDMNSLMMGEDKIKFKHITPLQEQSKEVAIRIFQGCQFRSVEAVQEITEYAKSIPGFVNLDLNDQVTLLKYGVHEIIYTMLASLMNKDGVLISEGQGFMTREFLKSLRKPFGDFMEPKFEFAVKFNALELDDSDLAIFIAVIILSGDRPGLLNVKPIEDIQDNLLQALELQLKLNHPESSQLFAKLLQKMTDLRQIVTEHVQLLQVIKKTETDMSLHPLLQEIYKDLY
Protocol: The core structure of BIM5078, benzimidazole, is related to known PPARγ compounds that functions as agonists or antagonists. BIM5078 was used in a PPAR response element (PPRE)-luciferase reporter assay. HeLa cells were co-transfected with a PPAR response element (PPRE) reporter plasmid and a human PPARγ expression vector. […] Known PPARγ agonists were used as positive controls. The same PPARγ agonist compounds were tested on T6PNE ins-eGFP for their ability to repress the insulin promoter. Known PPARγ agonists are unable to suppress insulin gene transcription. Similarly, other PPAR agonists of the alpha and delta class were also negative in the assay. However, because HNF4α also binds to PPREs, BIM5078's ability to bind HNF4α was further investigated.

[2] = HBV surface antigen levels in Huh7 cells transfected with wild-type HBV construct (pWTD); type: cell-based, Hepatitis B virus
Text: (§1) The HBsAg is seen as doublet bands with different glycosylation forms (GP33 and GP36).
(§2) BIM5078 is an HNF4α antagonist and can be useful in treatment of diseases involving HNF4α modulation. There are a number of HNF4α binding sites in the HBV genome, including the enhancer region, the core promoter and the polymerase. BIM5078 can downregulate the core and polymerase, and it has been discovered that it can effectively suppress or eliminate HBV proliferation. Also, the HNF4α binding sites are well-conserved and no mutations of these sites have yet been discovered in the various HBV strains. Thus, targeting HNF4α can circumvent the resistance seen with traditional therapies. […] The ability of the HNF4α antagonist BIM5078 to reduce viral production in Huh7 cells transfected with the wild-type HBV construct (pWTD) was tested. […] The large decrease in the two glycosylation forms of the surface antigen was visualized as doublet bands (FIG. 9).

HBV = experiment: as above; type: cell-based, Hepatitis B virus; conditions: GP33 and GP36 doublet bands
Text: as §1, §2

HNF1α transcription = experiment: HNF1α transcription; type: cell-based
Protocol: HNF1α is a downstream target of HNF4α and has a known binding site on the human insulin gene promoter. […] It is unclear whether HNF4α is modulating the insulin promoter directly or indirectly through a downstream target. Overexpression of HNF1α or HNF4α would overcome the repressive effects of BIM5078. The repressive effect of BIM5078 was lost when it was added to T6PNE cells with high levels of induced E47 (FIG. 8). High E47 levels are thought to resemble the normal state of a β-cell while low levels of E47 to simulate the stress condition.

HNF4α = target: T2, HNF4α (Homo sapiens, UniProt P41235); experiment: HNF4α subcellular localization; type: cell-based
T2 sequence (P41235 1-474): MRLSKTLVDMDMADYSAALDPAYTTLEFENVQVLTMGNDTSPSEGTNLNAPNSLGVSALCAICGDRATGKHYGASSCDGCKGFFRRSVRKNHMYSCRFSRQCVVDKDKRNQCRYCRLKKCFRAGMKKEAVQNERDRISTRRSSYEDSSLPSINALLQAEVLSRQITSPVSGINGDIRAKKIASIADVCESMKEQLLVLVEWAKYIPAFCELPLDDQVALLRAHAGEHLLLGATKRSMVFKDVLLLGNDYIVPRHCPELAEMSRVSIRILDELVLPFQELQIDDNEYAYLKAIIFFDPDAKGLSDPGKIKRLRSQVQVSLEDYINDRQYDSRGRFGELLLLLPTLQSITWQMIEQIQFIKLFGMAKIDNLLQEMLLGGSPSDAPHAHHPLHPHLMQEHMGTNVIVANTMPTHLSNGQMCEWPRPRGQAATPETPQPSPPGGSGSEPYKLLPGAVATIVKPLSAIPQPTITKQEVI
Text: Many ligands for nuclear receptor subfamilies induce the translocation of their receptors between the cytoplasm and the nucleus.

[3] = hoFH patients, ezetimibe 10 mg/day added to statin 80 mg/day; cited from earlier work
human insulin promoter = experiment: High-throughput screen / confirmatory assay, insulin promoter-GFP (ins-GFP) transgene in T6PNE cells; type: cell-based; conditions: T6PNE ins-eGFP cells
Text: Primary β-cells are in short supply and have a strong tendency to undergo apoptosis when manipulated in culture. Therefore, a β-cell model was used for the studies regarding β-cell growth and differentiation. T6PNE cells were derived from human fetal islets and were engineered to express the transcription factors PDX-1, NeuroD1, and E47, which are all present in the human β-cell. It was observed that induction of E47 upregulates the expression of many genes associated with β-cell function, including insulin. Consistent with what occurs in primary β-cells, it also was observed that E47 induction caused growth arrest in the cell line. Therefore, E47 was […] in T6PNE cells. […] Therefore, expression in the transfunctioned cell can be used as a baseline so both up and down regulators of the insulin promoter can be monitored in the screening assays. […] Insulin expression was monitored and visualized by the ins-GFP transgene. Hits were determined and dependent on the ability to differentiate between a baseline condition and the corresponding positive or negative control. […]
The HTS was performed in a 384-well format where primed T6PNE cells express the ins-GFP transgene and the test compound was added 24 hours later. […] The Images were then analyzed using algorithms (Jeff Price at the Screening Center at the Burnham Institute). […]

Question: For 4-hydroxytamoxifen [reference compound], which “endogenous insulin message with E47 induction” value ([1]; T6PNE cells with inducible E47) is on record?
Answer: upregulated in a dose-dependent manner

Question: For `Cc1nc2ccccc2n1S(=O)(=O)c1cc([N+](=O)[O-])ccc1Cl` [BIM5078, 1-(2-Chloro-5-nitrophenylsulfonyl)-2-methyl-1H-benzo[d]imidazole], which “repressive effect on insulin expression at high E47” value ([1]; T6PNE cells with high levels of induced E47 (high 4-hydroxytamoxifen)) is on record?
Answer: lost

Question: And the “activation of PPRE reporter” value (human PPARγ)?
Answer: activated the PPRE

Question: And the actin levels [2]?
Answer: no dependence

Question: What about the “HBV surface antigen (HBsAg) levels” value (HBV) of the same molecule?
Answer: decreased their levels of surface antigen; also recorded: decreased the HBsAg protein expression

Question: And the HNF1α transcription (HNF1α transcription)?
Answer: decrease the HNF1α transcription

Question: What about the “HNF4α localization upon addition of compound” value (HNF4α) of the same molecule?
Answer: localized entirely in the nucleus

Question: For `O=C1[C@H](CC[C@H](O)c2ccc(F)cc2)[C@@H](c2ccc(O)cc2)N1c1ccc(F)cc1` [ezetimibe], which “total reduction of LDL-C levels” value [3] is on record?
Answer: 27%

Question: For `CCCCCCCCCCCCCCCC(=O)O` [palmitic acid], which “insulin promoter activity / insulin gene transcription, effect in words” value (human insulin promoter) is on record?
Answer: suppresses the insulin promoter activity in a dose-dependent fashion
